Assays:
[1] = tested on: NRF2 downstream target genes (NQO1, HMOX1, GCLC); experiment: qPCR gene expression analysis of NRF2 and downstream targets in FaDu cells; assay type: cell-based, Human; conditions: for NQO1 expression (qPCR): vs wildtype unedited cells, without cisplatin exposure
Description: (§1) Total RNA was isolated from edited cells using TRIzol reagent and PureLink RNA Mini Kit (Thermo Fisher Scientific, Waltham, MA). Reverse transcription was conducted using the Applied Biosystems High-Capacity RNA-to-cDNA kit (Thermo Fisher Scientific, Waltham, MA). The cDNA was used as the template in the qPCR amplification of GAPDH (Fwd 5′ […]3′ (SEQ ID NO:76), Rev 5′[…]3′ (SEQ ID NO:77)), NRF2 (Fwd 5′[…]3′ (SEQ ID NO:78), Rev 5′[…]3′ (SEQ ID NO:79)), NQO1 (Fwd 5′[…]3′ (SEQ ID NO:80), Rev 5′[…]3′ (SEQ ID NO:81)), HMOX1 (Fwd 5′ […]3′ (SEQ ID NO:82), Rev 5′[…]3′ (SEQ ID NO:83)) and GCLC (Fwd 5′[…]3′ (SEQ ID NO:84), Rev 5′ […]3′ (SEQ ID NO:85)) transcripts using the SsoAdvanced universal SYBR Green Supermix (BioRad, Hercules, CA). The experiment was conducted at least twice with all samples run in duplicate at minimum. Relative expression levels of mRNA were calculated using the Livak method and normalized to the control. The data was plotted with the coefficient of variance.
(§2) For all gene editing studies from bench to bedside, it is important to employ a functional assay, accompanied by an internal functional control, to assess the efficiency of CRISPR/Cas activity. In this case, NRF2 is a transcription factor that controls the expression of over 200 genes. Thus, NRF2 disruption can be measured functionally through qPCR analysis of NQO1 expression, a keystone gene controlled by NRF2. NQO1 has been used as a standard measure of NRF2 activity in cancer cells^40. We also use downstream targets HMOX1 and GCLC, two major antioxidant enzymes, to assess NRF2 function.

[2] = tested on: NRF2; experiment: NRF2 protein analysis by western blot in FaDu cells; assay type: cell-based, Human; conditions: 72-hour timepoint, relative to GapDH, normalized to wild-type
Description: Total protein was isolated from cells in RIPA buffer (Pierce), incubated on ice for 30 minutes with vortexing every 10 minutes. Samples were centrifuged at 14,000×G at 4° C. for 15 minutes and the supernatant was saved. Protein extracts were quantified using a BCA assay (Pierce) and 20 μg of protein was loaded onto a Biorad 4-20% polyacrylamide pre-cast gel (Biorad). Protein was transferred onto a […] nitrocellulose blot using the Turboblot dry transfer system (Biorad). The membrane was blocked in 5% milk in TBS-T for 2 hours at room temperature and stained with anti-NRF2 1:1000 (Abcam, ab62352) and anti-GAPDH 1:5,000 (Cell Signaling Technology, 97166). Blots were washed 3× at room temperature in TBS-T and stained with secondary antibodies conjugated to HRP 1:10,000 (Abcam, ab205718 or Thermofisher, PI31430). Blots were imaged using the Pierce Femto western blotting substrate (Pierce). Bands were quantified using the FIJI gel analysis tool package.

[3] = tested on: KYSE-410 cells; experiment: Chemosensitivity testing, CellTiter-Glo 2.0 cell viability, KYSE-410 cells; assay type: cell-based, Human; conditions: for chemosensitivity to Cisplatin restored: cisplatin 72 hr; for sensitivity to cisplatin: exon 4 targeting
Text: The data was plotted with the coefficient of variance.
To evaluate this approach for broad based applications, we executed the same protocol on KYSE-410 cells which originate from the poorly differentiated invasive esophageal squamous cell carcinoma resected from the cervical esophagus of a person prior to treatment^41. First, we confirmed that the DNA sequence of exon 2 and exon 4 was identical and amenable to targeting with CRISPRs sg3, sg76, or sg83 respectively (data not shown). While this may seem like a trivial matter, it is not, particularly with mutator phenotypes in transformed cells. Plated cells were allowed to recover for 24 hours prior to transfection with the same CRISPR complexes as described in FIG. 12. […] These overall levels are generally considered to be a complete genetic disruption of a mammalian gene. The percentage of frameshift mutations created by the action of these guide RNAs mimics those levels seen previously in FADU cells. […] The expression levels of NRF2, NQO1, HMOX1, and GCLC were also assessed, FIG. 13C. […] This analysis further supports that disruption of NRF2 in exon 4 has a higher impact on overcoming chemosensitivity by disrupting its function of activating downstream genes.

[4] = tested on: NRF2 downstream target genes (NQO1, HMOX1, GCLC); experiment: qPCR gene expression analysis of NRF2 and downstream targets in KYSE-410 cells; assay type: cell-based, Human; conditions: for NQO1 expression (qPCR): vs wildtype unedited cells, without cisplatin exposure
Description: as §1, §2

[5] = tested on: T98G cells; experiment: Chemosensitivity testing, CellTiter-Glo 2.0, T98G cells; assay type: cell-based, human; conditions: increasing concentrations of temozolomide and doxorubicin, 72 hr
Text: FIG. 5A-D: Glioblastoma cells targeting exon 4 of NRF2 and assessment of chemotherapy response. T98G cells (FIG. 5A) and LN229 cells (FIG. 5B) were transfected with each respective gRNA. Genomic DNA from each cell population was isolated and amplified across exon 4 of the NRF2 gene. Amplicons were sanger sequenced and analyzed for indels at the CRISPR target site. Raw sequence files were aligned using the software program, DECODR, to display the indel pattern (listed as INDEL and frameshift %). (FIG. 5C-D) Chemosensitivity Testing in response to NRF2 targeting. Chemosensitivity was measured via CellTiter-Glo® 2.0 Assay. Untargeted and CRISPR targeted T98G cells were treated with increasing concentrations of (FIG. 5C) temozolomide or (FIG. 5D) doxorubicin for 72 hr. and then evaluated for cell viability. The average relative viability of cells normalized to the untreated Wt. was graphed. The error bars represent % CV.
Two human glioblastoma-derived cell lines were used to assess CRISPR activity and downstream effects of NRF2 knockout. FIG. 5 compares targeting exon 4 by two sgRNAs (sg76 (SEQ ID NO:16) and sg83 (SEQ ID NO:24)) and chemosensitivity assessment after targeting in both glioblastoma T98G and LN229 cell lines. Both cell lines were transfected using CRISPRmax lipofection with each respective gRNA and Cas9 mRNA. […]

[6] = tested on: FaDu cells; conditions: for viability after a single dose of Cisplatin: exon 4 edited, cisplatin 72 hours; for sensitivity to cisplatin: exon 4 targeting

Row | Substance | expression of NQO1, HMOX1, and GCLC ([1]; 2 week timepoint) | expression of downstream target genes relative to NRF2 levels (ratio) ([1]; 72 hr) | NRF2 protein knock down [2] [%] | chemosensitivity to Cisplatin restored [3] | sensitivity to cisplatin [3] | expression of NQO1 and GCLC ([1]; 2 week timepoint, compared to sg3 and sg76) | NQO1 and GCLC expression levels ([1]; 72 hr) | NQO1 expression (qPCR) [1] | NQO1 and GCLC expression ([4]; vs exon 2 (sg3) or exon 4 (sg76) targeted cells) | NQO1 expression (qPCR) [4] | sensitivity to treatment [5] | viability after a single dose of Cisplatin [6] | sensitivity to cisplatin [6]
1 | sg3: gRNA targeting the DLG motif in exon 2 of NRF2; 5′-TATTTGACTTCAGTCAGCGA-3′ or TGGAGGCAAGATATAGATCT (further chemistry not given here) [reference compound] | increase in expression | do not show a reduction in expression of downstream target genes relative to NRF2 levels | 30 | – | – | – | – | – | – | – | – | – | –
2 | sg83: gRNA targeting exon 4 of NRF2; GTAGCCCCTGTTGATTTAGA CGG (guide GTAGCCCCTGTTGATTTAGACGG; listed as DNA, chemistry not given here) | – | – | 90 | restored | enhanced sensitivity to cisplatin | lower expression of NQO1 and GCLC | diminished | significantly decreased | lower levels of NQO1 and GCLC expression | significantly decreased | increased sensitivity to treatment | significant reduction in viability | enhanced sensitivity to cisplatin
3 | sg76: gRNA targeting exon 4 of NRF2; TCACTTGTTCCTGATATTCC CGG (guide TCACTTGTTCCTGATATTCCCGG; listed as DNA, chemistry not given here) | – | do not show a reduction in expression of downstream target genes relative to NRF2 levels | 90 | restored | enhanced sensitivity to cisplatin | – | – | significantly decreased | – | significantly decreased | increased sensitivity to treatment | significant reduction in viability | enhanced sensitivity to cisplatin

Source: patent US20250319206A1, “CRISPR/CAS GENE EDITING OF NEH4 AND/OR NEH5 DOMAINS IN NRF2” (Christina Care Gene Editing Institute, Inc., priority 2024, published 2025)
